Experimental data reported in US12692221B2 (priority 2024, dated 2026).

Assays:
H2 (h) = target: T1, H2 (h) (Homo sapiens, UniProt P25021); experiment: Radioligand binding H2 (h) (antagonist radioligand), [^125I]APT, CHO cells
T1 construct: expressed in transfected cells; host or cells: CHO cells
Experimental: (§1) Methods—Binding Assays: In vitro binding assays were performed using human recombinant receptors expressed in mammalian cell lines. Receptors were expressed in either HEK-293 or CHO cells depending on the target, and assay conditions (radioligand, concentration, nonspecific competitor, temperature, and incubation time) were optimized for each receptor. All assays were conducted in triplicate, and specific binding was quantified by scintillation counting as the detection method for each listed assay.
(§2) Specific binding was expressed as a percentage of control-specific binding, and percent inhibition was calculated using the formula in Ex. 8 above. Half-maximal inhibitory concentrations (IC50) were determined by non-linear regression analysis of the inhibition curves using the Hill equation (see Ex. 8). Inhibition constants (Ki) were calculated using the Cheng-Prusoff equation (see Ex. 8). KD values used in these calculations had been previously established for each receptor under the assay conditions (see Table 6). Data analysis was performed using software developed at Cerep and validated against SigmaPlot 4.0 for Windows.

MAO-A = target: T2, MAO-A (Rattus norvegicus, UniProt P21396); experiment: Radioligand binding MAO-A (antagonist radioligand), [^3H]Ro 41-1049, rat cerebral cortex
T2 construct: from tissue; host or cells: rat cerebral cortex
T2 sequence (P21396 1-526): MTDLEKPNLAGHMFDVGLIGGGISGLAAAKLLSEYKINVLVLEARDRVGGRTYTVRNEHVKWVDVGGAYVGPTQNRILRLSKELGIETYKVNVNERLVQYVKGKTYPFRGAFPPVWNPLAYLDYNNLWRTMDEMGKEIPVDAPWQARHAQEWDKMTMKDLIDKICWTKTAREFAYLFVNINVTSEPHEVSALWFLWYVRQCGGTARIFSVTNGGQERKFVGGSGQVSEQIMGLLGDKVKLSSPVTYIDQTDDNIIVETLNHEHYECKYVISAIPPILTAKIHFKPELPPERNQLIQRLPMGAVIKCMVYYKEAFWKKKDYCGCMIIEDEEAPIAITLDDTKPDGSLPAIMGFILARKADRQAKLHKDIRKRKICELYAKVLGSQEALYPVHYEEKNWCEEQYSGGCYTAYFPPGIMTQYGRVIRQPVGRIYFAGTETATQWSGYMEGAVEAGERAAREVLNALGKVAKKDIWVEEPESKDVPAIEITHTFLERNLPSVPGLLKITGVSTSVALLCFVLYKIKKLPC

COX1(h) = COX1(h) (Homo sapiens, UniProt P23219); experiment: Enzyme assay COX1(h), arachidonic acid + ADHP, fluorimetry; type: biochemical
Experimental: (§3) Methods—Enzyme and Uptake Assays: In vitro enzyme and uptake assays were conducted by Eurofins Discovery using human recombinant enzymes expressed in various mammalian and insect cell lines. Enzymatic activity was measured using appropriate substrates or tracers under conditions optimized for each target, as detailed in Table 7. Reactions were incubated at room temperature for a defined duration and terminated according to established protocols. The measured components (either enzymatic products or remaining substrate) were quantified using fluorimetry, photometry, scintillation counting, or LANCE technology, depending on the assay. Assay-specific parameters, including substrate identity, cell line source, incubation time, and detection method, are provided in Table 7.
(§4) All measurements were performed in technical replicates to ensure reproducibility and data quality.
(§5) Results were expressed both as a percentage of control-specific activity and as percent inhibition of control-specific activity. Percent activity was calculated as (measured specific activity/control specific activity)×100, and percent inhibition as 100−[(measured specific activity/control specific activity)×100], based on values obtained in the presence of test compounds. IC50 and EC50 values, along with Hill coefficients (nH), were determined by nonlinear regression analysis of inhibition or concentration-response curves generated from mean replicate values. Hill curve fitting was performed as previously described using software developed at Cerep and validated against SigmaPlot® 4.0 for Windows® (© 1997 by SPSS Inc.).

5-HT transporter (h) = target: T3, 5-HT transporter (h) (Homo sapiens, UniProt P31645); experiment: Radioligand binding 5-HT transporter (h) (antagonist radioligand), [^3H]imipramine, CHO cells
T3 construct: expressed in transfected cells; host or cells: CHO cells
Experimental: as §1, §2

beta2 (h) = target: T4, beta2 (h) (Homo sapiens, UniProt P07550); experiment: Radioligand binding beta2 (h) (antagonist radioligand), [^3H](−)CGP 12177, CHO cells
T4 construct: expressed in transfected cells; host or cells: CHO cells
Experimental: as §1, §2

[1] = target: T5, Potassium Channel hERG (human) (Homo sapiens, UniProt Q12809); experiment: Radioligand binding Potassium Channel hERG (human), [^3H]Dofetilide, HEK-293 cells; settings: Potassium Channel hERG(h) ([3H] Dofetilide)
T5 construct: expressed in transfected cells; host or cells: HEK-293 cells
Experimental: as §1, §2

Acetylcholinesterase (h) = target: T6, Acetylcholinesterase (h) (Homo sapiens, UniProt P22303); experiment: Enzyme assay Acetylcholinesterase (h), photometry; type: biochemical
T6 construct: purchased Eurofins Discovery (contract assay)
Experimental: as §3, §4, §5

5-HT2B = 5-HT2B (Homo sapiens, UniProt P41595); experiment: IP-One HTRF IP-1 accumulation functional assay, 5-HT2B/HEK293; type: cell-based; design: host or cells: HEK293
Experimental: Methods (5-HT2B IP-One Functional Activity Assays): Intracellular accumulation of IP-1 was measured using an IP-One HTRF) assay kit (Cat. #62IPAPEJ, Cisbio) at WuXi AppTec Co. Ltd. (Hong Kong) Discovery Biology Unit according to their standard protocols. Briefly, 5-HT2B/HEK293 were plated in a 384-well plate and incubated at 37° C. and 5% CO2 overnight. The reference compounds and screening compounds were 3.16-fold serially diluted in 100% DMSO for 10 points using Bravo. 70 nL of compounds were added to the cell plate using Echo555. Incubated for 60 minutes at 37° C. Added 3 μL of IP-1 d2 Reagent working solution and 3 μL of IP-1 Tb Cryptate Antibody working solution to all wells. The plates were incubated for 1 hour at room temperature and read on for fluorescence at 620 nm and 665 nm on an EnVision Multimode Plate Reader (PerkinElmer). The ratio of the acceptor and donor emission signals (665/620) were calculated for each individual well and substituted into the standard curve to obtain the log concentration of IP level. After converting to the antilog base IP-1, the average background control signal was subtracted from each well and values were normalized to the maximal response of 5-HT at 3 μM (100%). % MAX was calculated by taking the average normalized maximal response at the highest concentration tested. Data were analyzed using the four-parameter nonlinear regression curve-fitting function in GraphPad Prism 5 (GraphPad Software, San Diego, CA) to generate potency (EC50) values. Parameter constraint “Top=100” was used in the analysis of 5-HT2B IP-1. Represented plots show normalized IP-1 values versus compound concentrations; the corresponding numerical data are parameter estimates for the concentration-response curve using the 4-parameter nonlinear regression curve-fitting function in GraphPad Prism 10. “Top=100” parameter constraint was not enabled for the represented plot analysis.

Chain of COX1(h) (P23219 24-599): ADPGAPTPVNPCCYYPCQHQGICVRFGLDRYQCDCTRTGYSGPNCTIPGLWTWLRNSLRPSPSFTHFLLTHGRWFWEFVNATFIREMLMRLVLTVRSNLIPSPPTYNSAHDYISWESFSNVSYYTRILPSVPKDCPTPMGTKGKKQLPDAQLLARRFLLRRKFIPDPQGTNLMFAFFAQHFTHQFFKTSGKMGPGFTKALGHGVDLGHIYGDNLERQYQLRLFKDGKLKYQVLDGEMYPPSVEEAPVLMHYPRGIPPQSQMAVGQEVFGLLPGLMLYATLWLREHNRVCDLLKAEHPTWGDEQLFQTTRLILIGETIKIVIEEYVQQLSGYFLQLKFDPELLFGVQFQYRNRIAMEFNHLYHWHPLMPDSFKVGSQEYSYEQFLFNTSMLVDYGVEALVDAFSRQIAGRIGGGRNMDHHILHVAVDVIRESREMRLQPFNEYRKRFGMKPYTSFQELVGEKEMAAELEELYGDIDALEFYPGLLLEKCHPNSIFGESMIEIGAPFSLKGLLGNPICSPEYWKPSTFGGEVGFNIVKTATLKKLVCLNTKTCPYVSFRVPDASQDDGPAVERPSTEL
T3 sequence (P31645 whole entry): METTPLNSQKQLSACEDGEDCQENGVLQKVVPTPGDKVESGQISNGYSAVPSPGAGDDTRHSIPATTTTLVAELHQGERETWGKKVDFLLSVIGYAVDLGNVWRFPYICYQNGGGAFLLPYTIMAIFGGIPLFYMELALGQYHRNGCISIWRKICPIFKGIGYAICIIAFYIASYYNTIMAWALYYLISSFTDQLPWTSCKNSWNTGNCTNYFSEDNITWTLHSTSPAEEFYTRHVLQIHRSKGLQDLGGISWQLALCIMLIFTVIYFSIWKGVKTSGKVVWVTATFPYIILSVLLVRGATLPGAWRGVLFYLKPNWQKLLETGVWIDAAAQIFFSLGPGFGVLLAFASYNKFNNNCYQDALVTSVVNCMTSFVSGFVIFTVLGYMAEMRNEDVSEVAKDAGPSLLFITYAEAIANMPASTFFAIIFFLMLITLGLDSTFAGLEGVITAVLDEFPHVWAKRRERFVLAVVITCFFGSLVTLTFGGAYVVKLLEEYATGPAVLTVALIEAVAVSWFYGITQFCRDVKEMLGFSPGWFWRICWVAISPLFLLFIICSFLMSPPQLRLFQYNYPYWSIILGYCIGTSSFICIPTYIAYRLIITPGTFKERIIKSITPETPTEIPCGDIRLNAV
T1 sequence (P25021 whole entry): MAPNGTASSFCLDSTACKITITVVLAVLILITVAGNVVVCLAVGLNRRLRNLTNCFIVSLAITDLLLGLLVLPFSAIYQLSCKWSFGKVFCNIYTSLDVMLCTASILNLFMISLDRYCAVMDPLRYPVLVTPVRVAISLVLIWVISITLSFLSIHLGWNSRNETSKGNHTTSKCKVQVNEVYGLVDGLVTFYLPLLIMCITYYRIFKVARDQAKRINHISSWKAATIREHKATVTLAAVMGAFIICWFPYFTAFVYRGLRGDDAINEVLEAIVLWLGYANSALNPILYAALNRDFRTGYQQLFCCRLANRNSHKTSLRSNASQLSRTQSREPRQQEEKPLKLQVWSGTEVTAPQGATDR
T5 sequence (Q12809 whole entry): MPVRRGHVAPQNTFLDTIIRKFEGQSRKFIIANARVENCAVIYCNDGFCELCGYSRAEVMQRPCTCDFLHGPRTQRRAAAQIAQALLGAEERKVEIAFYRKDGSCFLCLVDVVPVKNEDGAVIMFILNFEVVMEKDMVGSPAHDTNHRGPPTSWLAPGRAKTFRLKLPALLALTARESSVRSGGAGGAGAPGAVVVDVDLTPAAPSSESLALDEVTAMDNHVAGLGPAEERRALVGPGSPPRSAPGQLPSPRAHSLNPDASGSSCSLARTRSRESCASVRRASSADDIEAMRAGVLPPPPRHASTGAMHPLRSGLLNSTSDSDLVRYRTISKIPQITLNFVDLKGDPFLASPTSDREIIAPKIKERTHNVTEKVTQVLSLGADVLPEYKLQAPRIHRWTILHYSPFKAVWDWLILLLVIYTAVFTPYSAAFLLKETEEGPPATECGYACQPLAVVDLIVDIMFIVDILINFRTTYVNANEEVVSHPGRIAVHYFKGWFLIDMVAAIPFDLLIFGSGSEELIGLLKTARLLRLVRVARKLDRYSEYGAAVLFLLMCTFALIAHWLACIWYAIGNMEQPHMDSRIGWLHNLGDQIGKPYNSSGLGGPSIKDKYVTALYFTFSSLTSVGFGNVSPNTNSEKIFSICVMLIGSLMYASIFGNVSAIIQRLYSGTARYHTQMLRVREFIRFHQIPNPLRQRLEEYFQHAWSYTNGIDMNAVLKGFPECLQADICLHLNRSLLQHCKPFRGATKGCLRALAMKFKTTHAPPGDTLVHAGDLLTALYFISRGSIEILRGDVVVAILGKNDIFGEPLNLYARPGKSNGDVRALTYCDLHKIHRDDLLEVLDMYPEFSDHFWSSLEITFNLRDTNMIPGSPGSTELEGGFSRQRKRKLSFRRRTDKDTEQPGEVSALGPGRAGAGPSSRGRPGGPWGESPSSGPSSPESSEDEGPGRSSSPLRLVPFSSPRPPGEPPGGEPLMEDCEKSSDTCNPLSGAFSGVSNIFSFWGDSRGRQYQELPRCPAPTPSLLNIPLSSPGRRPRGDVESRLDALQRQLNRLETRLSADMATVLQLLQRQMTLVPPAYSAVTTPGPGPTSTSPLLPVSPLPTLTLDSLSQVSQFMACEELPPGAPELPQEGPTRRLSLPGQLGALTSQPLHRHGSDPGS
T4 sequence (P07550 whole entry): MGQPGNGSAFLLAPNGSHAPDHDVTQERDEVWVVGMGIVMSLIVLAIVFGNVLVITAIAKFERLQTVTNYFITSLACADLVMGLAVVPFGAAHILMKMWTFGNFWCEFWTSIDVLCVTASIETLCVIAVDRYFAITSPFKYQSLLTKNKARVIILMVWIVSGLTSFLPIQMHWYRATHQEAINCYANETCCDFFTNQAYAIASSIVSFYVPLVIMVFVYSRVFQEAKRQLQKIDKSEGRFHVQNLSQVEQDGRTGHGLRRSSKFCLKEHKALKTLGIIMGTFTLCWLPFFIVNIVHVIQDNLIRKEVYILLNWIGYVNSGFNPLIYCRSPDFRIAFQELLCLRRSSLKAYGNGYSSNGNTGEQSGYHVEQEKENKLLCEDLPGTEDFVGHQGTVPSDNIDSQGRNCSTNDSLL
T6 sequence (P22303 32-614): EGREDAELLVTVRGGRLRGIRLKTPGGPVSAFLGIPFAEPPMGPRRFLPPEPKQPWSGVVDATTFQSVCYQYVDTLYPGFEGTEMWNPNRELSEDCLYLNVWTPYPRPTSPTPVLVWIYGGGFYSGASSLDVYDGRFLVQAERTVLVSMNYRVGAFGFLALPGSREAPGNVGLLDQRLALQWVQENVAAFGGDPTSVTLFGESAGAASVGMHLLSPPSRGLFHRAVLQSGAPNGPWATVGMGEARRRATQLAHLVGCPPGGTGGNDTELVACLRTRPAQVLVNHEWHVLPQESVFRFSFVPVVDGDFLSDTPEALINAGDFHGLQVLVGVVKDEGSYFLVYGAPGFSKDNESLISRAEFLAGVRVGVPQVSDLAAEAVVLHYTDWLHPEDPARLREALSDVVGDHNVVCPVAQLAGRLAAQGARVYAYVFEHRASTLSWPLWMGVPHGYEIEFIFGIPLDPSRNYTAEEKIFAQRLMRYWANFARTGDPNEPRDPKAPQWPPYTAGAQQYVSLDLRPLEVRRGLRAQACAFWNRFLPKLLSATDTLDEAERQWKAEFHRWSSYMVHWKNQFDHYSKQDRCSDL
Chain of 5-HT2B (P41595 whole entry): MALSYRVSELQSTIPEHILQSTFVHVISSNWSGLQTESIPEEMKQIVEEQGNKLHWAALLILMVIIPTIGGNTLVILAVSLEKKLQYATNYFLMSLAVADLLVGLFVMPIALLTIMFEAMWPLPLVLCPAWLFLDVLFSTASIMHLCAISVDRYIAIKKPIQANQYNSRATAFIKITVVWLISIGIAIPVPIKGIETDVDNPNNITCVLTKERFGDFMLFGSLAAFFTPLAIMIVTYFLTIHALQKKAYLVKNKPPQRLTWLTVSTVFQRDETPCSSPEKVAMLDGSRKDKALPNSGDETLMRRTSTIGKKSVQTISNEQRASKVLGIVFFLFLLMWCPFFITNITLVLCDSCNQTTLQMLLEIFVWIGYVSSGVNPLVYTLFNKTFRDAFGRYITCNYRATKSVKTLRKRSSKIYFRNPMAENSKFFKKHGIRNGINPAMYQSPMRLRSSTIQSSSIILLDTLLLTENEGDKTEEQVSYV

In the case of `COCc1cc(CCN)c(O)cc1CC(C)C` [2CiBu-2OH-5MM, 2-(2-aminoethyl)-5-isobutyl-4-(methoxymethyl)phenol], the “Mean Percent Inhibition of Control Specific Binding” value (“Mean Percent Inhibition” for short) (H2 (h)) is reported as 12.5%, the “Mean Percent Inhibition” value (MAO-A) is reported as 7.0% and the “Mean Percent Inhibition” value (COX1(h)) is reported as −37.4%. For the same compound, the “Mean Percent Inhibition” value (5-HT transporter (h)) was 15.0%, the “Mean Percent Inhibition” value (beta2 (h)) was 42.1% and the “Mean Percent Inhibition” value [1] was 9.7%. The “Mean Percent Inhibition” value (Acetylcholinesterase (h)) was 4.4%.
For `COCCc1cc(CCN)c(OC)cc1Br` [Compound 2CB-5ME, reference compound], the “Mean Percent Inhibition” value (H2 (h)) was −0.6%, the “Mean Percent Inhibition” value (MAO-A) was 5.4% and the “Mean Percent Inhibition” value (COX1(h)) was −4.7%. For the same compound, the “Mean Percent Inhibition” value (5-HT transporter (h)) was 8.6%, the “Mean Percent Inhibition” value (beta2 (h)) was 31.8% and the “Mean Percent Inhibition” value [1] was 8.5%. The EC50 (5-HT2B) was 0.131 µM and the “Mean Percent Inhibition” value (Acetylcholinesterase (h)) was −3.2%.
In the case of `COCc1cc(CCN)c(OC)cc1Br` [Compound 2CB-5MM, 2-(4-bromo-2-methoxy-5-(methoxymethyl)phenyl)ethan-1-amine], the “Mean Percent Inhibition” value (H2 (h)) is reported as −14.7%, the “Mean Percent Inhibition” value (MAO-A) is reported as 9.3% and the “Mean Percent Inhibition” value (COX1(h)) is reported as 0.3%. The “Mean Percent Inhibition” value (5-HT transporter (h)) was −1.3%, the “Mean Percent Inhibition” value (beta2 (h)) was 18.8% and the “Mean Percent Inhibition” value [1] was 13.9%. For the same compound, the EC50 (5-HT2B) was 0.0786 µM and the “Mean Percent Inhibition” value (Acetylcholinesterase (h)) was −3.5%.
`COCc1cc(CCN)c(OC)cc1CC(C)C` [Compound 2CiBu-5MM, 2-[4-isobutyl-2-methoxy-5-(methoxymethyl)phenyl]ethanamine] was tested, and the “Mean Percent Inhibition” value (H2 (h)) was −16.5%, the “Mean Percent Inhibition” value (MAO-A) was 4.1% and the “Mean Percent Inhibition” value (COX1(h)) was 13.8%. For the same compound, the “Mean Percent Inhibition” value (5-HT transporter (h)) was 4.9%, the “Mean Percent Inhibition” value (beta2 (h)) was 38.3% and the “Mean Percent Inhibition” value [1] was 4.4%. The EC50 (5-HT2B) was 0.825 µM and the “Mean Percent Inhibition” value (Acetylcholinesterase (h)) was 8.0%.
